Series [1] has as its target T1, type VI-S porcine pancreatic lipase (Sus scrofa, UniProt P00591).
T1 construct: purchased Sigma type VI-S (catalogue number not given)
T1 sequence (P00591 1-450): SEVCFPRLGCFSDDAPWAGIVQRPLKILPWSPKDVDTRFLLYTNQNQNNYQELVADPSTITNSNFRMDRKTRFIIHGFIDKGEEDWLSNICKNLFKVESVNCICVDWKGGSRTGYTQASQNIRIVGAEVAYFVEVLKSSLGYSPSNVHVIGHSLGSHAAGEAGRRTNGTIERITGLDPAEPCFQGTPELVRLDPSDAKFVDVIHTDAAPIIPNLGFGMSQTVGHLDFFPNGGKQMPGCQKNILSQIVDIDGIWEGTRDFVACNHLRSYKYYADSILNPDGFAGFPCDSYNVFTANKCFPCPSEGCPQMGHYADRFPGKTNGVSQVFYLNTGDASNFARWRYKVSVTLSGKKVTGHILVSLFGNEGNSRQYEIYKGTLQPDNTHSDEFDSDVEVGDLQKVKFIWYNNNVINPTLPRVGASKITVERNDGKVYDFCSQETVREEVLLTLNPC
The series is described as follows: Pancreatic lipase assay (pH-stat titration, triolein substrate). The class given is biochemical. Particulars: for k / Ymax: 7.0 nM lipase, 700 nM inhibitor, pH 8.0; for k: k fitted for the 12.5 min after inhibitor addition, Y=Ymax*(1-exp(-k*X)); for Ymax: Ymax of the fit Y=Ymax*(1-exp(-k*X)). On the set-up: Ymax: unit not given here. The essentials:
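Porcine pancreatic lipase (type VI-S, 7.0 nM) hydrolysed a sonicated 3% triolein emulsion with bile salts, phosphatidylcholine, cholesterol, BSA and 10 mM CaCl2, under pH-stat titration at pH 8.0. Inhibitor at 700 nM was added after 10 min. k was fitted by one-phase exponential association over the following 12.5 min.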

Usually melting point stands for the temperature, or range, at which the solid turns liquid. Regarding `CCCCCCN(C)c1nc2sc(C(=O)OCc3ccccc3)c(C)c2c(=O)o1` [Entry 57, 2-(Hexyl-methyl-amino)-5-methyl-4-oxo-4H-thieno[2,3-d][1,3]oxazine-6-carboxylic acid benzyl ester], the melting point was 86 to 88 °C. In addition, the k in series [1] was 0.070 10-3.s-1.

As to `CCCCCCCCNc1nc2sc(C(=O)NCc3cccnc3)c(C)c2c(=O)o1` [Entry 35, 5-Methyl-2-octylamino-4-oxo-4H-thieno[2,3-d][1,3]oxazine-6-carboxylic acid (pyridin-3-ylmethyl)amide], the melting point was in the range of 148 to 150 °C. For the same compound, the k in series [1] is reported as 1.544 10-3.s-1.

With `CCCCCCCCNC(=O)Nc1sc(C(=O)N2CCN(Cc3ccccc3)CC2)c(C)c1C(=O)O` [Entry 37, 5-(4-Benzyl-piperazine-1-carbonyl)-4-methyl-2-(3-octyl-ureido)-thiophene-3-carboxylic acid], the melting point is 193.5 to 195 °C (dec.). In addition, in series [1], the Ymax is listed as 0.211 and the k is recorded as 0.574 10-3.s-1.

By inhibition is commonly meant the share of the control response that was lost under treatment. As for `CCCCCCCCOc1nc2sc(CCCCCCCC)c(C)c2c(=O)o1` [Entry 87], the melting point was determined as 36 °C. The same compound displayed an inhibition at 0.7 µM in series [1] (12.5 min) of 27.9%.

`CCCCCCCCNc1nc2sc(CCCC)cc2c(=O)o1` [Entry 63, 6-Butyl-2-octylamino-thieno[2,3-d][1,3]oxazin-4-one]: the melting point was in the range of 93 to 94 °C. Besides, in series [1], the Ymax stood at 10.091 and the k is 0.074 10-3.s-1.

In turn, `CCCCCCCCNc1nc2sc(C(=O)NCC(=O)OCc3ccccc3)c(C)c2c(=O)o1` [Entry 48, [(5-Methyl-2-octylamino-4-oxo-4H-thieno[2,3-d][1,3]oxazine-6-carbonyl)-amino]-acetic acid benzyl ester] returned a melting point of 147 to 149 °C. For the same compound, the k in series [1] is given as 0.440 10-3.s-1.

Source of the values: patent US7064122B2, “Pancreatic lipase inhibitor compounds, their synthesis and use” (OSI Pharmaceuticals, Inc., priority 2001, dated 2006).
